Assay results taken from patent US5268282A, “Cyclic FR-900520 microbial biotransformation agent” (Merck & Co., Inc., priority 1992, dated 1993).
“Also recorded” adds a separate entry of the source.

Assays:
[1] = tested on: splenic T-cells (mouse T lymphocytes); assay: T-cell proliferation assay (ionomycin + PMA induced T-cell stimulation, tritiated thymidine uptake); type: cell-based, mouse (C57Bl/6)
Description: The principle of this assay is to measure the proliferation of mouse T lymphocytes stimulated with the combination of ionomycin plus PMA.
Cells were pelleted by centrifugation at 1500 rpm for 8 minutes. Contaminating red cells were removed by treating the pellet with ammonium chloride lysing buffer (GIBCO) for 2 minutes at 4° C. Cold medium was added and cells were again centrifuged at 1500 rpm for 8 minutes. T lymphocytes were then isolated by separation of the cell suspension on nylon wool columns as follows: Nylon wool columns were prepared by packing approximately 4 grams of washed and dried nylon wool into 20 ml plastic syringes. The columns were sterilized by autoclaving at 250° F. for 30 minutes. Nylon wool columns were wetted with warm (37° C.) culture medium and rinsed with the same medium. Washed spleen cells resuspended in warm medium were slowly applied to the nylon wool. The columns were then incubated in an upright position at 37° C. for 1 hour. Non-adherent T lymphocytes were eluted from the columns with warm culture medium and the cell suspensions were spun as above.
The cell suspension was immediately distributed into 96 well flat-bottom microculture plates (Costar) at 200 μl/well. […] Radioactivity of filter discs corresponding to individual wells was measured by standard liquid scintillation counting methods (Betacounter). Mean counts per minute of replicate wells were calculated and the results expressed as percent inhibition of tritiated thymidine uptake (proliferation) as follows: [formula]

[2] = Solubility (physical characteristics); type: physicochemical; conditions: methanol
[3] = immunosuppressant; EPO Publication No. 0184162; cited from earlier work

With `CC[C@@H]1C=C2COC1(O)C[C@H](O)[C@@H](C)[C@@H](/C(C)=C/[C@@H]1CC[C@@H](O)[C@H](OC)C1)OC(=O)[C@@H]1CCCCN1C(=O)C(=O)[C@]1(O)O[C@H]([C@@H](OC)C[C@@H](C)C2)[C@@H](OC)C[C@H]1C` [Compound I] the “Inhibition of T-cell proliferation upon addition of IL2” value ([1]; 50 units/ml recombinant IL2 added at the initiation of culture) was “reversed”, the IC50 ([1]; Mus musculus, T-cell, based on a series of 5 additional experiments, read-out: IC50, generally in the range of) was 1.57 to 5.2 ng/mL and the “immunosuppressant activity (inhibition of T-cell activation / T-cell proliferation assay)” value ([1]; result in words) was “positive inhibition of T-cell activation; also recorded: positive immunosuppressive activity”. For the same compound, the Solubility [2] was “Solubility in methanol”.
In the case of `C=CC[C@@H]1/C=C(\C)C[C@H](C)C[C@H](OC)[C@H]2O[C@@](O)(C(=O)C(=O)N3CCCC[C@H]3C(=O)O[C@H](/C(C)=C/[C@@H]3CC[C@@H](O)[C@H](OC)C3)[C@H](C)[C@@H](O)CC1=O)[C@H](C)C[C@@H]2OC` [FK-506], the “times more effective than cyclosporin (reputed)” value [3] is given as 100 times.
`C=CCC1C=C(C)CC(C)CC(OC)C2OC(O)(C(=O)C(=O)N3CCCCC3C(=O)OC(C(C)=CC3CCC(O)C(OC)C3)C(C)C(O)CC1=O)C(C)CC2OC` (stereo not drawn) [FR 900506, reference compound] showed an inhibition at 0.01 µg/mL ([1]; Mus musculus, T-cell, read-out: inhibition by the standard) of 99%.
